{"source": "ChEMBL document CHEMBL4402542", "about": "“Heat Shock Protein 90 Inhibitors: An Update on Achievements, Challenges, and Future Directions” (J Med Chem, 2020)", "key": {"[1]": {"molecular_target": "T1, Heat shock protein HSP 90-alpha (Homo sapiens, UniProt P07900)", "test": "Inhibition of His6-tagged N-terminal human HSP90alpha expressed in Escherichia coli BL21 Lys cells preincubated for 10 mins followed by SA-APC and biotin-GM addition and measured after 6 hrs by TR-FRET assay"}, "[2]": {"tested_on": "MCF7", "test": "Antiproliferative activity against human MCF7 cells", "format": "functional, cell-based"}, "[3]": {"test": "Binding affinity to His6-tagged TPR2A (unknown origin) assessed as reduction in fluorescein-labeled C-terminal Hsp90/TRP2A protein-protein interaction incubated for 2 hrs by fluorescence polarization assay", "parameters": "species or system Homo sapiens"}, "[4]": {"tested_on": "PANC-1", "test": "Antitumor activity against human PANC1 cells xenografted in athymic mouse at 3 mg/kg, ip administered for 2 continuous days followed by 1 injection per 3 days and measured twice per week relative to control", "format": "functional", "settings": "PANC-1, ip, 72 h, read-out: GI"}, "[5]": {"tested_on": "PANC-1", "test": "Antiproliferative activity against human PANC1 cells after 24 hrs by MTS assay", "format": "functional, cell-based", "settings": "PANC-1, 24 h"}, "[6]": {"molecular_target": "T2, Endoplasmin (Homo sapiens, UniProt P14625)", "T2 sequence (P14625 whole entry)": "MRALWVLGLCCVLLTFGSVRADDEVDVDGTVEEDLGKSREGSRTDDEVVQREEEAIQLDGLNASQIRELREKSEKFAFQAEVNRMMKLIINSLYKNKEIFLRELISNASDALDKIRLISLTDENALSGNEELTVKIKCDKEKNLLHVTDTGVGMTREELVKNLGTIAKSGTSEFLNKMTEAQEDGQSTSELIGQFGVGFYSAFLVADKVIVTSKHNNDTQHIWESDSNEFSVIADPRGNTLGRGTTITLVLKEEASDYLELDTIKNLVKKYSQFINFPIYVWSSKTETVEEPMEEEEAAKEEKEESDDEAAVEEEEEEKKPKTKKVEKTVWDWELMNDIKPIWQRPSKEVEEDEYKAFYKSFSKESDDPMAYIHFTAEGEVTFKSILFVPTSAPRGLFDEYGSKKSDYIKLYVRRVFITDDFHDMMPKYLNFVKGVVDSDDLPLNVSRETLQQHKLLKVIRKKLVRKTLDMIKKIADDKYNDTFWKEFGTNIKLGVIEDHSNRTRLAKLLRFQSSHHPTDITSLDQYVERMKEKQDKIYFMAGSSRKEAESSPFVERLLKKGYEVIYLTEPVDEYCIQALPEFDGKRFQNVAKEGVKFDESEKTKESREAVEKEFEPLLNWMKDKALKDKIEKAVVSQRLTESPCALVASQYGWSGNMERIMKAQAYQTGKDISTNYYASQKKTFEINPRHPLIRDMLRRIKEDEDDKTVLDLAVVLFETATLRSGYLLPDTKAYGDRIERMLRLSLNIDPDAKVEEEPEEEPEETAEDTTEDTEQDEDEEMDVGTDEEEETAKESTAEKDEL", "test": "Displacement of FITC-geldanamycin from GRP94 (unknown origin) after 24 hrs by fluorescence polarization assay"}, "[7]": {"tested_on": "NCI-H1299", "test": "Antiproliferative activity against human NCI-H1299 cells incubated for 2 days followed by medium replacement by MTT assay", "format": "functional, cell-based", "settings": "NCI-H1299, 48 h"}, "[8]": {"tested_on": "PANC-1", "test": "Antiproliferative activity against human PANC1 cells after 48 hrs by MTS assay", "format": "functional, cell-based", "settings": "PANC-1, 48 h"}, "[9]": {"tested_on": "BXPC-3", "test": "Antiproliferative activity against human BxPC3 cells after 48 hrs by MTS assay", "format": "functional, cell-based", "settings": "BXPC-3, 48 h"}, "[10]": {"tested_on": "MIA PaCa-2", "test": "Antiproliferative activity against human MIAPaCa2 cells after 48 hrs by MTS assay", "format": "functional, cell-based", "settings": "MIA PaCa-2, 48 h"}, "[11]": {"tested_on": "MCF7", "test": "Antiproliferative activity against human MCF7 cells after 72 hrs by MTS/PMS assay", "format": "functional, cell-based", "settings": "MCF7, 72 h"}, "[12]": {"test": "Binding affinity to His6-tagged TPR2A (unknown origin) by isothermal titration calorimetry", "parameters": "species or system Homo sapiens"}, "[13]": {"tested_on": "MDA-MB-231", "test": "Antiproliferative activity against human MDA-MB-231 cells", "format": "functional, cell-based"}, "[14]": {"tested_on": "MV4-11", "test": "Antiproliferative activity against human MV4-11 cells after 120 hrs by TopCount scintillation analysis", "format": "functional, cell-based", "settings": "MV4-11, 120 h"}, "[15]": {"molecular_target": "T1, Heat shock protein HSP 90-alpha", "test": "Inhibition of FITC-geldanamycin binding to recombinant human HSP90alpha expressed in Escherichia coli preincubated for 2 hrs followed by Geldanamycin-FITC addition and measured after 5 hrs by fluorescence polarization competitive binding assay"}, "[16]": {"molecular_target": "T3, Heat shock protein 75 kDa, mitochondrial (Homo sapiens, UniProt Q12931)", "T3 sequence (Q12931 whole entry)": "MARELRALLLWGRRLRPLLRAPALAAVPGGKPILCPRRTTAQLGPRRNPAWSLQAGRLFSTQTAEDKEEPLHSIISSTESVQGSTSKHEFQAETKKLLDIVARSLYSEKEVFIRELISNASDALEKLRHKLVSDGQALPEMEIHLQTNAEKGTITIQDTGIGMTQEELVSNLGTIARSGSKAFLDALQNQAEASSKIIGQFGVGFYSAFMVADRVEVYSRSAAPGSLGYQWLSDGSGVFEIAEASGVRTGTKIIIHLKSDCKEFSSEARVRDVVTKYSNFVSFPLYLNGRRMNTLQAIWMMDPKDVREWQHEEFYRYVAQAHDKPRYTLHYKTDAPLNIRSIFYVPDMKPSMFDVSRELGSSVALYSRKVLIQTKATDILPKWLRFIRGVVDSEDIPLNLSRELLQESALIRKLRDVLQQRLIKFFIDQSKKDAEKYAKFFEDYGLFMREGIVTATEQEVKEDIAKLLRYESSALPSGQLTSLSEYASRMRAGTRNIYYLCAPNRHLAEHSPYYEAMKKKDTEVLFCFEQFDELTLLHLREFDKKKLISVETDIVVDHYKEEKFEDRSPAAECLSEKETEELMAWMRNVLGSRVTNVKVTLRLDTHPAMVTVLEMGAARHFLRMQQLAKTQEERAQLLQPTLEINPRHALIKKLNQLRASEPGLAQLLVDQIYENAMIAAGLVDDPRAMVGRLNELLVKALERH", "test": "Inhibition of FITC-geldanamycin binding to N-terminal His-tagged recombinant human TRAP1 (60 to 704 residues) expressed in Escherichia coli preincubated for 2 hrs followed by Geldanamycin-FITC addition and measured after 5 hrs by fluorescence polarization competitive binding assay"}, "[17]": {"molecular_target": "Heat shock protein HSP 90-beta (Homo sapiens, UniProt P08238)", "sequence (P08238 whole entry)": "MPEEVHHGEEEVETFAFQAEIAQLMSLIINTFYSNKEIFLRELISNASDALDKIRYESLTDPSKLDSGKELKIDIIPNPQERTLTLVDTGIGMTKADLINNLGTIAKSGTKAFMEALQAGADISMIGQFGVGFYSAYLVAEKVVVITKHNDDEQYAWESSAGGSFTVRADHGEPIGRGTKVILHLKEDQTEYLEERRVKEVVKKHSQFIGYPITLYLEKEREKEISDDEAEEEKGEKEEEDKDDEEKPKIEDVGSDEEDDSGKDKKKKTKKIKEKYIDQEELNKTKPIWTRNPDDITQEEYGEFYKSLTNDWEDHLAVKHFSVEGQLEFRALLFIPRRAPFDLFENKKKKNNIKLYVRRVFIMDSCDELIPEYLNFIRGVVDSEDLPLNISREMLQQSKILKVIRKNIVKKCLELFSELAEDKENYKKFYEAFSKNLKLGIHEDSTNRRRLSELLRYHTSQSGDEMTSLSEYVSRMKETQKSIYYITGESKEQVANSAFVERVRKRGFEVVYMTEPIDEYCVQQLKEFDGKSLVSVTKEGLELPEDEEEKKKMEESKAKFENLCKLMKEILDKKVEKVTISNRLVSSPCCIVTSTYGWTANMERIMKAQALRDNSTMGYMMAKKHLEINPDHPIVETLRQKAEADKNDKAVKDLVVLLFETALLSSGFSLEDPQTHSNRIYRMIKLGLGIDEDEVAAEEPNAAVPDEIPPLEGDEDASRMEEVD", "test": "Inhibition of FITC-geldanamycin binding to recombinant human HSP90beta expressed in Escherichia coli preincubated for 2 hrs followed by Geldanamycin-FITC addition and measured after 5 hrs by fluorescence polarization competitive binding assay"}, "[18]": {"molecular_target": "T2, Endoplasmin", "test": "Inhibition of FITC-geldanamycin binding to N-terminal His-tagged recombinant human GRP94 expressed in Escherichia coli preincubated for 2 hrs followed by Geldanamycin-FITC addition and measured after 5 hrs by fluorescence polarization competitive binding assay"}, "[19]": {"test": "Antiproliferative activity against rat KNRK5.2 cells", "format": "functional, cell-based"}}}
{"molecule": "COc1cccc(C(=O)NC2CC3CCC(C2)N3c2ccc(C(N)=O)cn2)c1C", "note": "(stereo unspecified)", "values": [{"measurement": "IC50", "setting": "[1]", "result": 641, "unit": "nM"}]}
{"molecule": "COc1c(C)cnc(Cn2cnc3c(Cl)nc(N)nc32)c1C", "note": "[BIIB021]", "values": [{"measurement": "IC50", "setting": "[2]", "result": 310, "unit": "nM"}]}
{"molecule": "CCn1nc(-c2cccs2)nc2c(=O)n(C)c(=O)nc1-2", "values": [{"measurement": "Kd", "setting": "[3]", "result": 308, "unit": "nM"}]}
{"molecule": "CC1=C(O)C(=O)C=C2C1=CC=C1[C@@]2(C)CC[C@@]2(C)[C@@H]3C[C@](C)(C(=O)O)CC[C@]3(C)CC[C@]12C", "note": "[CELASTROL]", "values": [{"measurement": "inhibition in vivo at 3 mg/kg", "setting": "[4]", "result": 80, "unit": "%"}, {"measurement": "IC50", "setting": "[5]", "result": 3000, "unit": "nM"}]}
{"molecule": "CC(C)c1cc(C(=O)N2Cc3ccccc3C2)c(O)c2cnoc12", "values": [{"measurement": "Kd", "setting": "[6]", "result": 8480, "unit": "nM"}]}
{"molecule": "CC(C)NCCCn1c(Sc2cc3c(cc2I)OCO3)nc2c(N)ncnc21", "note": "[PU-H71]", "values": [{"measurement": "IC50", "setting": "[2]", "result": 90, "unit": "nM"}]}
{"molecule": "COc1ccc(CC(=O)c2ccc3c(c2OC)C=CC(C)(C)O3)cc1OC", "values": [{"measurement": "IC50", "setting": "[7]", "result": 140, "unit": "nM"}]}
{"molecule": "CO[C@@H]1[C@@H](OC(N)=O)[C@@H](O)[C@H](Oc2ccc3c(O)c(NC(=O)c4ccc(O)c(CC=C(C)C)c4)c(=O)oc3c2C)OC1(C)C", "note": "[NOVOBIOCIN]", "values": [{"measurement": "IC50", "setting": "[2]", "result": 256000, "unit": "nM"}]}
{"molecule": "Cn1nc(Cc2ccccc2)nc2c(=O)n(C)c(=O)nc1-2", "values": [{"measurement": "Kd", "setting": "[3]", "result": 566, "unit": "nM"}]}
{"molecule": "CC1=C(CO)C(=O)O[C@@H]([C@@H](C)[C@H]2CC[C@H]3[C@@H]4C[C@H]5O[C@]56[C@@H](O)C=CC(=O)[C@]6(C)[C@H]4CC[C@]23C)C1", "note": "[WITHAFERIN A]", "values": [{"measurement": "IC50", "setting": "[8]", "result": 1240, "unit": "nM"}, {"measurement": "IC50", "setting": "[9]", "result": 2780, "unit": "nM"}, {"measurement": "IC50", "setting": "[10]", "result": 2930, "unit": "nM"}]}
{"molecule": "CC(C)=CCc1c(O)cc2occ(-c3ccc(Cl)c(Cl)c3)c(=O)c2c1O", "values": [{"measurement": "IC50", "setting": "[11]", "result": 7300, "unit": "nM"}]}
{"molecule": "Cc1nc2c(=O)n(C)c(=O)nc-2n(C)n1", "values": [{"measurement": "Kd", "setting": "[3]", "result": 365, "unit": "nM"}, {"measurement": "Kd", "setting": "[12]", "result": 16000, "unit": "nM"}]}
{"molecule": "CCCc1nc2c(=O)n(C)c(=O)nc-2n(C)n1", "values": [{"measurement": "Kd", "setting": "[3]", "result": 202, "unit": "nM"}, {"measurement": "IC50", "setting": "[13]", "result": 1750, "unit": "nM"}]}
{"molecule": "CN(C)c1cc2c(cc1Sc1nc3c(N)nccc3n1CCNCC(C)(C)C)OCO2", "note": "[CUDC-305]", "values": [{"measurement": "IC50", "setting": "[14]", "result": 100, "unit": "nM"}]}
{"molecule": "CCc1cc(C(N)=O)ccc1-n1nc(C(C)C)c2c(-n3cnc(-c4cnn(C)c4)c3)ccnc21", "note": "[TAS-116]", "values": [{"measurement": "Ki", "setting": "[15]", "result": 34.7, "unit": "nM"}, {"measurement": "Ki", "setting": "[16]", "result": "> 50000", "unit": "nM"}, {"measurement": "Ki", "setting": "[17]", "result": 21.3, "unit": "nM"}, {"measurement": "Ki", "setting": "[18]", "result": "> 50000", "unit": "nM"}]}
{"molecule": "Cn1nc(-c2ccccc2)nc2c(=O)n(C)c(=O)nc1-2", "values": [{"measurement": "Kd", "setting": "[3]", "result": 1040, "unit": "nM"}]}
{"molecule": "C[C@@H]1C[C@H]2O[C@@H]2\\C=C/C=C/C(=N\\O)Cc2c(Cl)c(O)cc(O)c2C(=O)O1", "values": [{"measurement": "IC50", "setting": "[19]", "result": 39, "unit": "nM"}]}
{"molecule": "CCn1nc(-c2ccccc2)nc2c(=O)n(C)c(=O)nc1-2", "values": [{"measurement": "Kd", "setting": "[3]", "result": 928, "unit": "nM"}]}
